Data published in patent US8420598B2, “Mono modified exendin with polyethylene glycol or its derivatives and uses thereof” (B & L Delipharm Corp., priority 2007, dated 2013).
Read-outs that look alike come from different tables or passages of the source.

What was measured:
[1] = test system: pancreatic islet cells of Sprague Dawley rats; assay: Assay for promoting insulin secretion (insulin ELISA); format: cell-based; conditions: for EC50 / insulin secretory capacity: rat islet cells, 0.1-100 nM; for EC50: 16.7 mM glucose, 2 hours; for insulin secretory capacity: FIG. 5
Protocol: Cells used for this assay were pancreatic islet cells of Sprague Dawley rats, which could be isolated by collagenase digestion and then Ficoll gradient centrifugation. After being cultured for 2˜3 days in an incubator, the isolated pancreatic islet cells were suspended in 1 ml of KRH buffer (16.7 mM glucose) at a density of 20 cells per well into 24-well plates. […] Then, […] of the culture was taken from each well and analyzed for insulin level using an insulin ELISA kit.

[2] = rat, in vivo, sc
Protocol: SD rats weighing 200 g were subcutaneously injected with samples at a dose of 1 nmol/rat (4.18 μg/rat), followed by sampling blood through a tube inserted into the jugular vein. The blood samples were monitored for drug level using an ELISA kit.

db/db mice [3] = assay: Animal model test: oral glucose tolerance after s.c. injection; format: in vivo; conditions: 1 nmol/kg s.c. 30 min before oral glucose, FIG. 8
Protocol: 30 min before, at the time of, and 15, 30, 60, 120 and 180 min after the oral administration of glucose, blood samples were taken from the tail vein and monitored for glucose level.

db/db mice [4] = assay: Measurement of anti-diabetic activity in animals (blood glucose monitoring); format: in vivo; conditions: for time blood glucose kept at normal levels (<150 mg/dL) after injection: s.c., same dosage, db/db mice
[5] = rat, in vivo, iv

Lys^27-PEG2k-exendin-4: exendin-4 modified at lysine-27 with 2 kDa PEG (mPEG-SPA), Example 2
EC50 [1]: 3.11 nM
insulin secretory capacity [1]: superior to that of the other modified exendin-4, and similar to that of natural exendin-4
time to reach basal line (<2 ng/mL) after administration [2]: 4 h
activity by area under the glucose curve 0 to 180 min (db/db mice [3]): activity similar to that of natural exendin-4
time blood glucose kept at normal levels (<150 mg/dL) after injection (db/db mice [4]): about 6 hours

N^ter-PEG2k-exendin-4: exendin-4 modified at the N-terminus with 2 kDa mPEG-propionaldehyde, Example 1
EC50 [1]: 136 nM
insulin secretory capacity [1]: low insulin secretory capacity
activity by area under the glucose curve 0 to 180 min (db/db mice [3]): low effects

PEG5k-exendin-4: exendin-4 modified at lysine-27 with 5 kDa mPEG-SPA, Example 2
time blood glucose kept at normal levels (<150 mg/dL) after injection (db/db mice [4]): 12 h

PEG10k-exendin-4: exendin-4 modified at lysine-27 with 10 kDa mPEG-SPA, Example 2
time blood glucose kept at normal levels (<150 mg/dL) after injection (db/db mice [4]): 18 h

PEG20k-Exendin-4 (bi-branched): exendin-4 modified with 20 kDa bi-branched PEG, Example 3
AUC [5]: 5717 ± 1015 ng·h/mL
Elimination Half Life [5]: 28.0 ± 10.4 h
Volume of Distribution [5]: 25.45 ± 16.84 mL
time blood glucose kept at normal levels (<150 mg/dL) after injection (db/db mice [4]): about 8 hours

PEG20k-exendin-4: exendin-4 modified at lysine-27 with 20 kDa mPEG-SPA, Example 2
residual activity (insulin secretion) ([1]; 10 nM, relative to natural exendin-4, FIG. 9): ≥ 40%
Elimination Half Life [2]: 22.0 ± 1.7 h
time blood glucose kept at normal levels (<150 mg/dL) after injection (db/db mice [4]): about 36 hours

PEG23k-Exendin-4 (tri-branched): exendin-4 modified at lysine-27 with 23 kDa tri-branched PEG, Example 3
promotion of insulin secretion, dose dependence ([1]; 0.1, 1, 10 and 100 nM, FIG. 16): promote insulin secretion in a dose-dependent manner
AUC [5]: 7659 ± 1365 ng·h/mL
Elimination Half Life [5]: 25.1 ± 9.1 h
Volume of Distribution [5]: 9.41 ± 1.57 mL
duration of medicinal efficacy (db/db mice [4]; dose of 5 nmol/kg): 12 to 18 h
duration of medicinal efficacy (db/db mice [4]; dose of 10 nmol/kg): 36 to 48 h
duration of medicinal efficacy (db/db mice [4]; dose of 20 nmol/kg): 72 to 96 h
duration of useful medicinal effects (db/db mice [4]; dose of 50 nmol/kg): ≤ 120 h
